The results in this text go back to patent US8987273B2, “Substituted imidazo[1,2-B]pyridazines” (Bayer Intellectual Property GmbH, priority 2010, dated 2015).

Each structure is given as a SMILES string.

Test [1] concerns the target His-tagged human recombinant kinase full-length Akt1 (Homo sapiens (Human), UniProt P31749). In words: Akt1 kinase assay (TR-FRET). It counts as biochemical. Conditions: 10 μM ATP; median. An excerpt: Akt1 inhibitory activity of compounds of the present invention was quantified employing the Akt1 TR-FRET assay as described in the following paragraphs. His-tagged human recombinant kinase full-length Akt1 expressed in insect cells was purchased form Invitrogen (part number PV 3599). As substrate for the kinase reaction the biotinylated peptide biotin-Ahx-[…] (C-terminus in amide form) was used which can be purchased e.g. from the company Biosynthan GmbH (Berlin-Buch, Germany).
(§1) For the assay 50 nl of a 100 fold concentrated solution of the test compound in DMSO was pipetted into a black low volume 384 well microtiter plate (Greiner Bio-One, Frickenhausen, Germany), 2 μl of a solution of Akt1 in assay buffer [50 mM TRIS/HCl pH 7.5, 5 mM MgCl2, 1 mM dithiothreitol, 0.02% (v/v) Triton X-100 (Sigma)] were added and the mixture was incubated for 15 min at 22° C. to allow pre-binding of the test compounds to the enzyme before the start of the kinase reaction. Then the kinase reaction was started by the addition of 3 μl of a solution of adenosine-tri-phosphate (ATP, 16.7 μM=>final conc. in the 5 μl assay volume is 10 μM) and substrate (1.67 μM=>final conc. in the 5 μl assay volume is 1 μM) in assay buffer and the resulting mixture was incubated for a reaction time of 60 min at 22° C. The concentration of Akt1 in the assay was adjusted depending of the activity of the enzyme lot and was chosen appropriate to have the assay in the linear range, typical enzyme concentrations were in the range of about 0.05 ng/μl (final conc. in the 5 μl assay volume).
The reaction was stopped by the addition of 5 μl of a solution of HTRF detection reagents (200 nM streptavidine-XL665 [Cisbio] and 1.5 nM anti-phosho-Serine antibody [Millipore, cat. #35-001] and 0.75 nM LANCE Eu-W 1024 labeled anti-mouse IgG antibody [Perkin Elmer]) in an aqueous EDTA-solution (100 mM EDTA, 0.1% (w/v) bovine serum albumin in 50 mM HEPES/NaOH pH 7.5).
(§2) The resulting mixture was incubated 1 h at 22° C. to allow the binding of the biotinylated phosphorylated peptide to the streptavidine-XL665 and the antibodies. Subsequently the amount of phosphorylated substrate was evaluated by measurement of the resonance energy transfer from the anti-mouse-IgG-Eu-Chelate to the streptavidine-XL665. Therefore, the fluorescence emissions at 620 nm and 665 nm after excitation at 350 nm was measured in a HTRF reader, e.g. a Rubystar (BMG Labtechnologies, Offenburg, Germany) or a Viewlux (Perkin-Elmer). The ratio of the emissions at 665 nm and at […] was taken as the measure for the amount of phosphorylated substrate. The data were normalised (enzyme reaction without inhibitor=0% inhibition, all other assay components but no enzyme=100% inhibition).
Background: TR-FRET usually uses a lanthanide donor and a delayed reading to cut background.

In a further test the test system is KPL-4 cells. In words: Tumor cell proliferation assay (CellTiter-Glo). It counts as cell-based. The settings on record: KPL4; 72 h drug exposure. The method, then:
Compounds were tested in a cell-based assay that measures the capacity of the compounds to inhibit tumour cell proliferation following a 72 h drug exposure. Cell viability is determined using CellTiter-Glow® (CTG, Promega, cat# G757112/3). The CellTiter-Glo® Luminescent Cell Viability Assay is a homogeneous method to determine the number of viable cells in culture. Detection is based on using the luciferase reaction to measure the amount of ATP from viable cells. The amount of ATP in cells correlates with cell viability. Within minutes after a loss of membrane integrity, cells lose the ability to synthesize ATP, and endogenous ATPases destroy any remaining ATP; thus the levels of ATP fall precipitously.
Cells were plated at 3000-5000 cells/well (depending on the cell lines) in 90 μL growth medium on MTPs (Corning; #3603, black plate, clear flat bottom). For each cell line assayed, cells were plated onto a separate plate for determination of […] at t=0 hour and t=72 hour time points. Following overnight incubation at 37° C., chemiluminescence values for the t=0 samples were determined after adding 10 μl medium and 100 μl CTG solution according to manufacture protocol. Plates for the t=72 hour time points were treated with compounds diluted into growth medium at ten times final concentration added in 10 μL to the cell culture plate. Cells were then incubated for 72 hours at 37° C. Chemiluminescence values for the t=72 hour samples were determined. For data analysis, briefly, data from 24 h plate where used to reflect 100% inhibition of growth (“Ci”) and DMSO control for uninhibited growth (“C0”) and analyzed using MTS software package for IC50 and Hill coefficient. Experiments were controlled using a reference compound as standard.
A general note: ATP-based viability assays read luminescence as a measure of living cells.

The target of test [2] is His-tagged human recombinant kinase full-length Akt2 (Homo sapiens (Human), UniProt P31751). Kind of test: Akt2 kinase assay (TR-FRET). It counts as biochemical. Conditions: 10 μM ATP; median.
His-tagged human recombinant kinase full-length Akt2, sequence (P31751 whole entry): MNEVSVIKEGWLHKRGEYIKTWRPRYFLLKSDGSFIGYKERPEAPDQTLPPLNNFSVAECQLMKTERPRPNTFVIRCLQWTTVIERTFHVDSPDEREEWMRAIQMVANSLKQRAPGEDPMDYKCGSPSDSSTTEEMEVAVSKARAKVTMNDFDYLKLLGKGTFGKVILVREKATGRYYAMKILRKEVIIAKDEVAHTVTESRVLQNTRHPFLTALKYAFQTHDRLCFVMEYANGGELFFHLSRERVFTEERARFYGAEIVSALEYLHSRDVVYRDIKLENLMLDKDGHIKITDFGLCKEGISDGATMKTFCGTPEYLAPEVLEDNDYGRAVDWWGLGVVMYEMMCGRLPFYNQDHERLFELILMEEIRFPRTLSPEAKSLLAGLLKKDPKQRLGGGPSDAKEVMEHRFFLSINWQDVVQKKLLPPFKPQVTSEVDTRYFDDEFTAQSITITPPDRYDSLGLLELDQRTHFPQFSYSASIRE
Source text: Akt2 inhibitory activity of compounds of the present invention was quantified employing the Akt2 TR-FRET assay as described in the following paragraphs.
His-tagged human recombinant kinase full-length Akt2 expressed in insect cells and activated by PDK1 was purchased form Invitrogen (part number PV 3975). As substrate for the kinase reaction the biotinylated peptide biotin-Ahx-[…] (C-terminus in amide form) was used which can be purchased e.g. from the company Biosynthan GmbH (Berlin-Buch, Germany).
as §1, with “Akt2” for “Akt1”, “0.2” for “0.05”
The reaction was stopped by the addition of 5 μl of a solution of HTRF detection reagents (200 nM streptavidine-XL665 [Cisbio] and 1.5 nM anti-phosho-Serine antibody [Millipore, cat. #35-001] and 0.75 nM LANCE Eu-W 1024 labeled anti-mouse IgG antibody [Perkin Elmer]) in an aqueous EDTA-solution (100 mM EDTA, 0.1%/w/v\ bovine serum albumin in 50 mM HEPES/NaOH pH 7.5).
as §2, with “TR-FRET” for “HTRF”

In test [3] the test system is phospho-AKT at S473 in KPL4 breast tumour cell line. Kind of test: Cellular p-AKT1/2/3-S473 assay. The test is classed as cell-based. The settings on record: KPL4 cells, 2 hours treatment; median; read-out: pAKT-S743 median IC50. The procedure: The molecular mechanism of action was investigated in a set of experiments to assess the inhibition of the PI3K-AKT-mTOR pathway in responsive cell lines such as KPL4 breast tumour cell line (PIK3CAH1047R, HER2O/E and hormone independent). The phospho-substrates of PI3K-AKT-mTOR axis were used as the read-outs to reflect pathway inhibition. Cells were seeded at 60-80% confluency per well in 96-well cell culture plates. After overnight incubation at 37° C. 5% CO2, cells were treated with compounds and vehicle at 37° C. for 2 hours. […] All measurements where at least done in duplicates and confirmed by independent repetition.
Alternatively pAKT-S473 was measured using the “Akt Duplex” of the MULTI-SPOT® Assay System (Fa. Meso Scale Discovery, Cat# N41100B-1) following manufacturers instructions. Each assay used 20 μg of protein extract and measured total AKT and p-AKT content simultaneously in one well. All measurements where at least done in duplicates and confirmed by independent repetition. Values for P-AKT are expressed as percentage of P-AKT level compared to total-AKT content of the extracts.

His-tagged human recombinant kinase full-length Akt1, sequence (P31749 whole entry): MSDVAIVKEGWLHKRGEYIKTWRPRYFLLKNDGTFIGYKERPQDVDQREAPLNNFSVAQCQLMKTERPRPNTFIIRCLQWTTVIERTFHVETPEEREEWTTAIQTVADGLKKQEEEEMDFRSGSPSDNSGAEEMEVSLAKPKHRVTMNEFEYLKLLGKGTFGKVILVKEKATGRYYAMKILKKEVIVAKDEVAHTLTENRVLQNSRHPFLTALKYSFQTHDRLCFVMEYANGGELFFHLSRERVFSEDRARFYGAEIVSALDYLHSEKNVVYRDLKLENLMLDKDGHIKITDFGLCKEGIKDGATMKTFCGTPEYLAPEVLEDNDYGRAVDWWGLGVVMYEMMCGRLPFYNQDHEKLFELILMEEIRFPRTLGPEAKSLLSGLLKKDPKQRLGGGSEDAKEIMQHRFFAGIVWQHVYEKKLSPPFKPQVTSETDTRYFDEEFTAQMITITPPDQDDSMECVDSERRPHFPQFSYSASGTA

For the compound `NC1(c2ccc(-c3nn4ccnc4cc3-c3ccccc3)cc2)CCC1` [Example 1-0, 1-[4-(7-Phenyl-imidazo[1,2-b]pyridazin-6-yl)-phenyl]-cyclobutylamine], the IC50 – broadly, the concentration at which inhibition is half-maximal – was determined as 246 nM in test [1], 3540 nM with KPL-4 cells and 1440 nM in test [2].
As to `Cc1cnc2cc(-c3ccccc3)c(-c3ccc(C4(N)CCC4)cc3)nn12` [Example 2-0, 1-[4-(3-Methyl-7-phenyl-imidazo[1,2-b]pyridazin-6-yl)-phenyl]-cyclobutylamine], the IC50 in test [1] is 441 nM; in test [2] it was 1730 nM.
`CS(=O)(=O)c1ccc(-c2cnc3cc(-c4ccccc4)c(-c4ccc(C5(N)CCC5)cc4)nn23)cc1` [Example 4-0, 1-{4-[3-(4-Methanesulfonylphenyl)-7-phenyl-imidazo[1,2-b]pyridazin-6-yl]-phenyl}-cyclobutylamine]: the figures for the IC50 (in test [1]; in the test with KPL-4 cells; in test [2]) were 110 nM, 1850 nM and 278 nM, respectively.
In the same order, the values of `N#Cc1ccc(-c2cnc3cc(-c4ccccc4)c(-c4ccc(C5(N)CCC5)cc4)nn23)cc1` [Example 4-1, 4-{6-[4-(1-Amino-cyclobutyl)-phenyl]-7-phenyl-imidazo[1,2-b]pyridazin-3-yl}-benzonitrile] are 129 nM, 2030 nM and 136 nM.
The matching figures for `COC(=O)c1cccc(-c2cnc3cc(-c4ccccc4)c(-c4ccc(C5(N)CCC5)cc4)nn23)c1` [Example 4-2, 3-{6-[4-(1-Amino-cyclobutyl)-phenyl]-7-phenyl-imidazo[1,2-b]pyridazin-3-yl}-benzoic acid methyl ester]: 4 nM, 2560 nM and 58 nM.
In the same order, the values of `NC1(c2ccc(-c3nn4c(-c5ccc(F)cc5)cnc4cc3-c3ccccc3)cc2)CCC1` [Example 4-3, 1-{4-[3-(4-Fluorophenyl)-7-phenyl-imidazo[1,2-b]pyridazin-6-yl]-phenyl}-cyclobutylamine] are 36 nM, 1910 nM and 81 nM.
In the case of `Cc1ccc(-c2cnc3cc(-c4ccccc4)c(-c4ccc(C5(N)CCC5)cc4)nn23)cc1` [Example 4-4, 1-[4-(7-Phenyl-3-p-tolyl-imidazo[1,2-b]pyridazin-6-yl)-phenyl]-cyclobutylamine], the IC50 in test [1] came out at 44 nM; in the test with KPL-4 cells it was 6000 nM; in test [2], 277 nM.
On to `NC1(c2ccc(-c3nn4c(-c5ccn[nH]5)cnc4cc3-c3ccccc3)cc2)CCC1` [Example 4-15, 1-{4-[7-Phenyl-3-(2H-pyrazol-3-yl)-imidazo[1,2-b]pyridazin-6-yl]-phenyl}-cyclobutylamine], for which the IC50 in test [1] turned out to be 11 nM; with KPL-4 cells, 1400 nM; in test [2], 70 nM.
As to `NC1(c2ccc(-c3nn4c(-c5ccc6cn[nH]c6c5)cnc4cc3-c3ccccc3)cc2)CCC1` [Example 4-16, 1-{4-[3-(1H-indazol-6-yl)-7-phenyl-imidazo[1,2-b]pyridazin-6-yl]-phenyl}-cyclobutylamine], the figures for the half-maximal inhibitory concentration (IC50) (in test [1]; in the test with KPL-4 cells; in test [2]) were 11 nM, 5170 nM and 22 nM, respectively.
The matching figures for `COc1cncc(-c2cnc3cc(-c4ccccc4)c(-c4ccc(C5(N)CCC5)cc4)nn23)c1` [Example 4-18, 1-{4-[3-(5-Methoxypyridin-3-yl)-7-phenyl-imidazo[1,2-b]pyridazin-6-yl]-phenyl}-cyclobutylamine]: 5 nM, 1810 nM and 46 nM.
Consider `Cc1nc2cc(-c3ccccc3)c(-c3ccc(C4(N)CCC4)cc3)nn2c1-c1cn[nH]c1` [Example 5-2, 1-{4-[2-Methyl-7-phenyl-3-(1H-pyrazol-4-yl)-imidazo[1,2-b]pyridazin-6-yl]-phenyl}-cyclobutylamine], for which the IC50 worked out at 4780 nM in test [1], 2750 nM in the test on KPL-4 cells and 10000 nM in test [3].
As for `CCc1c(C)nc2cc(-c3ccccc3)c(-c3ccc(C4(N)CCC4)cc3)nn12` [Example 13-0, 1-[4-(3-Ethyl-2-methyl-7-phenyl-imidazo[1,2-b]pyridazin-6-yl)-phenyl]-cyclobutylamine], the IC50 amounted to 2470 nM with KPL-4 cells and 10000 nM in test [3].
